# Laboratory results reported in article PMC11604428, “UPLC-ESI/MS^n metabolic profiling of Cedrela odorata L. and Toona ciliata M. Roem and in vitro investigation of their anti-diabetic activity supported with molecular docking studies” (Frontiers in Chemistry, 2024).
# Legend:
# C57BL/KsJ-db/db mice = test system: C57BL/KsJ-db/db mice; parameters: method as in Jung et al., 2006; conditions: ref Jung et al., 2006; cited from earlier work
# [1] = test system: streptozotocin-induced diabetic mice; parameters: method as in Lee et al., 2010; Jang et al., 2009; Jang et al., 2010; conditions: streptozotocin-nicotinamide-induced, streptozotocin + high-fat diet and streptozotocin-induced diabetic mice, ref Lee et al., 2010, Jang et al., 2009; cited from earlier work
# α-amylase [2] = test system: α-amylase; parameters: method as in Shen et al., 2023; conditions: ref Shen et al., 2023; cited from earlier work
# α-glucosidase = α-glucosidase (Saccharomyces cerevisiae, UniProt P53341); parameters: method as in Shen et al., 2023; conditions: ref Shen et al., 2023; cited from earlier work
# Sequence of α-glucosidase (P53341 whole entry): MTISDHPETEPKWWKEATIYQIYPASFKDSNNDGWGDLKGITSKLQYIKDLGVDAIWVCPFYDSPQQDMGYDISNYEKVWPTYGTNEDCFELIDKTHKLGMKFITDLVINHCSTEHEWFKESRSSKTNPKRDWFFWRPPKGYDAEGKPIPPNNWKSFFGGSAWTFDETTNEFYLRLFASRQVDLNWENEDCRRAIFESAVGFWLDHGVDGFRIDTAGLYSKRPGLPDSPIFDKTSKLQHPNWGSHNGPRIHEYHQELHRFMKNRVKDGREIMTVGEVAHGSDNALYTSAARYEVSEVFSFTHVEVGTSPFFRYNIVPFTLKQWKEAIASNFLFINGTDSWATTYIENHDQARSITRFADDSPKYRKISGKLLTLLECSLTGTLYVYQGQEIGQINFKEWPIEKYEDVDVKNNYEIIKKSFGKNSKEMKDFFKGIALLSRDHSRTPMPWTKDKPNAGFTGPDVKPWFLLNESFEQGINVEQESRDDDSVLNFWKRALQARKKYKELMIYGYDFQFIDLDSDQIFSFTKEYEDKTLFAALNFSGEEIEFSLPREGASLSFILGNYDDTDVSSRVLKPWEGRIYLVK
# α-amylase [3] = assay: α-Amylase inhibition assay; assay type: biochemical; conditions: mean ± SD, triplicate
# Method: The α-amylase inhibitory activities of the tested Cedrela extracts were determined according to the standard published procedure with minor amendments ([Kazeem et al., 2013]). The enzyme solution was prepared by dissolving α-amylase in 20 mM phosphate buffer (pH = 6.9) at a concentration of 0.50 mg/mL. Then, 1 mL of different concentrations of the tested extract (0.01–100 μg/mL) was mixed with 1 mL of enzyme solution and allowed to sit at room temperature for 10 min. After incubation, 1 mL of 0.50% starch solution was included to the mixture and further incubated at room temperature for 10 min. The reaction was then ended by addition of 3,5-dinitrosalicylic acid (2 mL) and then heating the reaction mixture in a boiling water bath for 5 min. After cooling, the absorbance of the mixture was colorimetrically determined at 565 nm. Pioglitazone was used as a standard drug.
# The assays were performed in triplicates, and the obtained values are stated as mean ± SD. For the in vitro investigation of α-amylase and α-glucosidase inhibitory properties, the IC50 was obtained from the graph plots of the dose–response curves at each oil concentration via Graph Pad Prism® software (San Diego, CA, United States).
smiles,measurement,setting,value
O=C(O)/C=C/c1ccc(O)c(O)c1 [Caffeic acid],anti-hyperglycemic effect,C57BL/KsJ-db/db mice,anti-hyperglycemic properties
C[C@H]1[C@H](C)CC[C@]2(C(=O)O)CC[C@]3(C)C(=CC[C@@H]4[C@@]5(C)CC[C@H](O)C(C)(C)[C@@H]5CC[C@]43C)[C@H]12 [Ursolic acid],effect on blood glucose levels,[1],positive effect on reducing blood glucose levels
O=c1c(O)c(-c2ccc(O)c(O)c2)oc2cc(O)cc(O)c12 [quercetin],inhibition of α-amylase activity,α-amylase [2],markedly inhibited
same,inhibition of α-glucosidase activity,α-glucosidase,markedly inhibited
CCc1ccc(CCOc2ccc(CC3SC(=O)NC3=O)cc2)nc1 (stereo not shown) [Pioglitazone],α-Amylase inhibition (%),α-amylase [3]; concentration 0.01 µg/mL,12.50 ± 2.05%
same,α-Amylase inhibition (%),α-amylase [3]; concentration 0.10 µg/mL,27.70 ± 1.28%
same,α-Amylase inhibition (%),α-amylase [3]; concentration 1.00 µg/mL,45.40 ± 2.45%
same,α-Amylase inhibition (%),α-amylase [3]; concentration 10.00 µg/mL,80.60 ± 0.23%
same,α-Amylase inhibition (%),α-amylase [3]; concentration 100.00 µg/mL,91.70 ± 1.05%
same,α-Amylase inhibition IC50,α-amylase [3],2.17 ± 0.23 µg/mL
